The text below walks through data of PMC6130710 (Pharmaceutical Biology, 2017).

≈ marks a conversion by molar mass, not a printed value. Read-outs that look alike come from different tables or passages of the source.

The target in experiment [1] is rat intestinal α-glucosidase (maltase). Put plainly: rat intestinal α-glucosidase (maltase) inhibition assay. It counts as biochemical. The note with it: rat intestine; for IC50: compounds, Table 2. The procedure: (§1) 1 D and 2 D NMR spectra were recorded on a Bruker 400 AVANCE spectrometer, and the chemical shifts were reported in parts per million (ppm) using tetramethylsilane (TMS) as the internal standard. Melting points were determined on a Fisher-Johns Melting Point apparatus. Adsorbents such as silica gel 60 (Merck) were used for column and radial (chromatotron model 7924 T, Harrison Research) chromatographies. Merck silica gel 60F254 plates were used for TLC. HRESIMS spectra were obtained using a Bruker MICROTOF model mass spectrometer. UV-visible absorption spectra were recorded using a UV-2550 (SHIMADZU) UV-Vis spectrometer (Shimadzu, Kyoto, Japan). α-Glucosidase (EC 3.2.1.20) from Saccharomyces cerevisiae and 4-nitrophenyl-α-D-glucopyranoside (p-NPG) were obtained from Sigma-Aldrich (St. Louis, MO). Acarbose was obtained from Bayer Vitol Leverkusen, Germany. Rat intestinal acetone powder was supplied by Sigma Aldrich.
(§2) Moreover, previous procedure (Damsud et al. [2013]) was also applied to determine inhibitory activity of isolated compounds against intestinal α-glucosidases (maltase and sucrase). Briefly, 10 μL of the test sample and substrate solution (maltose: 10 mM, 20 μL; sucrose: 100 mM, 20 μL, respectively) in 0.1 M phosphate buffer (pH 6.9) were incubated at 37 °C (20 min for maltase and 60 min for sucrase). The mixture was discontinued in boiling water for 10 min, and glucose released from the reaction was converted to quinoneimine using a commercial Glu Kit (Human, Germany). The absorbance of final product was determined at 503 nm, and percent inhibition was calculated using the aforementioned equation.

The nature of experiment [2]: DPPH radical scavenging activity. The protocol: The antioxidant activity of the extract was evaluated through the free radical scavenging effect on 2,2′-diphenyl-1-picrylhydrazyl (DPPH) (Sigma) radical as previously reported (Yen & Hsieh [1997]) with slight modifications. 100 μL of 0.10 mM DPPH ethanolic solution was added to 20 μL of the sample with various concentrations. The mixture was thoroughly mixed and kept in the dark for 30 min. The absorbance was measured at 517 nm using a Sunrise microplate reader spectrophotometer.
Background: Loss of DPPH colour is used to gauge radical scavenging.

Experiment [3] addresses T1, α-Glucosidase (EC 3.2.1.20) from Saccharomyces cerevisiae (Baker's yeast) (Saccharomyces cerevisiae, UniProt P53341).
T1 construct: purchased Sigma-Aldrich (St. Louis, MO)
Nature of the experiment: biochemical. The procedure: as §1, with “Acarbose was obtained from Bayer Vitol Leverkusen, Germany.” left out
The evaluation of the inhibitory activity of all compounds against yeast and rat intestinal (maltase and sucrase) α-glucosidases was applied from a previous procedure (Damsud et al. [2013]). The inhibitory effect against yeast α-glucosidase was determined using the protocol previously described. Briefly, 10 μL of sample was mixed with α-glucosidase (0.1 U/mL) in 1 mM phosphate buffer (pH 6.9) and incubated at 37 °C for 10 min. The reaction mixture was added with 1 mM p-nitrophenyl-α-D-glucopyranoside (PNPG, 50 μL) followed by additional 20 min incubation. p-Nitrophenoxide liberated from the reaction was quantified by a microplate reader (UV 405 nm) after the addition of 1 M Na2CO3 (100 μL). The percent inhibition was deduced using the following equation. (A0-A1)/A0×100 where A1 and A0 are absorbances with and without the sample, respectively.

Experiment [4] deals with T2, rat intestinal α-glucosidase (sucrase) (Rattus norvegicus, UniProt P23739).
T2 construct: tissue Sigma Aldrich; host or cells: rat intestinal acetone powder
T2 sequence (P23739 1014-1841 limits assumed): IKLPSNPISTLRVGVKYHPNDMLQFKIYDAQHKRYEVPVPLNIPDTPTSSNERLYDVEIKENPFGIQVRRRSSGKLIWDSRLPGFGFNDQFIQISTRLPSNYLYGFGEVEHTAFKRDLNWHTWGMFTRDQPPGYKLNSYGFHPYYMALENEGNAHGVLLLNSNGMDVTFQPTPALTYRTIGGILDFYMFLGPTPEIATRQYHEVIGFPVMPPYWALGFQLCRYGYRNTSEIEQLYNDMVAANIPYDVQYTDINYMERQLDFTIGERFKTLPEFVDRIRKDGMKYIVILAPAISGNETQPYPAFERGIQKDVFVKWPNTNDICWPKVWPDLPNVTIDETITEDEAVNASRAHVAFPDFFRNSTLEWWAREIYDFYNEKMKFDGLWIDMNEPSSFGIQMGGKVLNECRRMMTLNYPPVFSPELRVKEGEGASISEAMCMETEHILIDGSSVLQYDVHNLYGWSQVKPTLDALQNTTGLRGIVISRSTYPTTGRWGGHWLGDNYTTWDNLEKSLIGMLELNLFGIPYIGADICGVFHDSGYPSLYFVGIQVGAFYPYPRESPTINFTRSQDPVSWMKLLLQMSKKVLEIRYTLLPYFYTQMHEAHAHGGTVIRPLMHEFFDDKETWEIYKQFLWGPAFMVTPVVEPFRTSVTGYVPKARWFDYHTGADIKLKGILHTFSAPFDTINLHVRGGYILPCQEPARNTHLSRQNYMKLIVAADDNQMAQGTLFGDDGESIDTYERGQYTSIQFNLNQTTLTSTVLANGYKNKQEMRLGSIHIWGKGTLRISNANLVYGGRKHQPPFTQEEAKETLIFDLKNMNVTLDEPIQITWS
T2 sequence (P23739 1-1013 partner limits assumed): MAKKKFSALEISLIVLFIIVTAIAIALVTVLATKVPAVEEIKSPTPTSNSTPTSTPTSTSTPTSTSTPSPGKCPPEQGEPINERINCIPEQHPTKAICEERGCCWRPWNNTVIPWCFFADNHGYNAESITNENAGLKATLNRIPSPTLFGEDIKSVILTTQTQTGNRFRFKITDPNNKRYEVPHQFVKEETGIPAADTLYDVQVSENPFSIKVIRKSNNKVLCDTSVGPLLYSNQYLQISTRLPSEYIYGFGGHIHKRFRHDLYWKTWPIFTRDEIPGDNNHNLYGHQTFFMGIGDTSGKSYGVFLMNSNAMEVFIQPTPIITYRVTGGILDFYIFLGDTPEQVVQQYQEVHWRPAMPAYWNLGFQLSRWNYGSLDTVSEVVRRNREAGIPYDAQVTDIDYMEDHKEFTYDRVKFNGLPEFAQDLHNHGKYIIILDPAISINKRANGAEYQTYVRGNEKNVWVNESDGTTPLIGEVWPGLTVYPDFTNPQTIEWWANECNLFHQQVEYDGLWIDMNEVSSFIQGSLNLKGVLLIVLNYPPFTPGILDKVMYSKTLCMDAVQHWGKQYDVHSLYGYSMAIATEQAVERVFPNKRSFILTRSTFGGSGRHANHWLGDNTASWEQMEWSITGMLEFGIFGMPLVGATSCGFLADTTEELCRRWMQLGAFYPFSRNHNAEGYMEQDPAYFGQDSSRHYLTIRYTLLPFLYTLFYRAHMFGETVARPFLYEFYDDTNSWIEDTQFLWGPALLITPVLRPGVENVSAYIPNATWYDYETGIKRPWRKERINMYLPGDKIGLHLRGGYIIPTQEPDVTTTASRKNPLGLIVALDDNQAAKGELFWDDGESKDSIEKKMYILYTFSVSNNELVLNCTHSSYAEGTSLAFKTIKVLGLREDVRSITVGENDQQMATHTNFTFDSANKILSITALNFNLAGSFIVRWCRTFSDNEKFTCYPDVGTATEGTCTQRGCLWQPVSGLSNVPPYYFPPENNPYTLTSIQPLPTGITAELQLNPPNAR
Put plainly: rat intestinal α-glucosidase (sucrase) inhibition assay. The conditions noted are these: rat intestine; compounds, Table 2. Format: biochemical. The protocol:
as §1, with “Acarbose was obtained from Bayer Vitol Leverkusen, Germany.” left out
as §2

Where [5] appears, read: IC50 Baker's yeast α-glucosidase, compounds, Table 2.
Setting [6] is: compounds, Table 2, read-out: IC50 Baker's yeast α-glucosidase.

T1 sequence (P53341 whole entry): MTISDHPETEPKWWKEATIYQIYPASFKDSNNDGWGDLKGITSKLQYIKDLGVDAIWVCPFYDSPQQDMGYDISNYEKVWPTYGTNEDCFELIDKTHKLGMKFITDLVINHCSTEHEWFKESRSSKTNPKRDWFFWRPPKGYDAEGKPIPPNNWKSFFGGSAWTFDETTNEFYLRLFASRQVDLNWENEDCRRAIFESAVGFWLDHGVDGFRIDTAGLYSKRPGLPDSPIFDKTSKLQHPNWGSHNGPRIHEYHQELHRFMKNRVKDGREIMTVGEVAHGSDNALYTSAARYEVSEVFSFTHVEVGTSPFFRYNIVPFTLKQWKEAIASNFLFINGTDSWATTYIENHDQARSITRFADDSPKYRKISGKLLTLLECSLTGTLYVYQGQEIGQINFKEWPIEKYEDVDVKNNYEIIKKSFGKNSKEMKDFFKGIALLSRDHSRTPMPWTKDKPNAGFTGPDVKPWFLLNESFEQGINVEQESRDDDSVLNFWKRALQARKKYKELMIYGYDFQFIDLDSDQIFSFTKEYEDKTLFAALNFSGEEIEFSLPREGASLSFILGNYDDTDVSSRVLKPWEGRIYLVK

In experiment [1], `C[C@H]1O[C@H](O[C@H]2[C@H](O)[C@@H](O)[C@@H](O[C@H]3[C@H](O)[C@@H](O)C(O)O[C@@H]3CO)O[C@@H]2CO)[C@H](O)[C@@H](O)[C@@H]1N[C@H]1C=C(CO)[C@@H](O)[C@H](O)[C@H]1O` (some centres unmarked) [Acarbose, reference compound] yielded an IC50 of 0.0079 ± 0.00094 mM. In addition, in experiment [1] (fractions A-G, Table 1), the “IC50 Maltase” value worked out at 5.1 ± 940 µg/mL (≈ 7.9 µM).
With `Cc1cc(C(C)(C)C)c(O)c(C(C)(C)C)c1` [BHT, reference compound], the 50% inhibitory concentration (IC50) in experiment [2] (compounds, Table 2) worked out at 0.328 ± 0.00056 mM. The “IC50 DPPH” value in experiment [2] (fractions A-G, Table 1) came out at 72 ± 350 µg/mL (≈ 327 µM).
For `C=C(C)[C@@H]1CC[C@]2(C)CC[C@]3(C)[C@H](CC[C@@H]4[C@@]5(C)CC[C@H](O)C(C)(C)[C@@H]5CC[C@]43C)[C@@H]12` [Compound 1, lupeol], the IC50 in experiment [3] (setting [5]) was 0.0372 ± 0.00022 mM; in experiment [3] (experimental IC50 yeast α-glucosidase, restated in mM in docking section), 0.037 mM; in experiment [1], more than 3 mM; in experiment [4] it was more than 3 mM; in experiment [2] (compounds, Table 2) it was more than 10 mM. In addition, in experiment [2] (compounds, Table 2), the “IC50 DPPH” value is on record as “no activity”.
For the compound `C=C(C)[C@@H]1CC[C@]2(C(=O)O)CC[C@]3(C)[C@H](CC[C@@H]4[C@@]5(C)CC[C@H](OC(C)=O)C(C)(C)[C@@H]5CC[C@]43C)[C@@H]12` [Compound 2a], the half-maximal inhibitory concentration (IC50) in experiment [3] (setting [6]) was 0.0281 ± 0.00076 mM; in experiment [1], more than 3 mM; in experiment [4] it was more than 3 mM; in experiment [2] (compounds, Table 2), more than 10 mM.
With `C=C(C)[C@@H]1CC[C@]2(C(=O)O)CC[C@]3(C)[C@H](CC[C@@H]4[C@@]5(C)CC[C@H](OC(=O)CC)C(C)(C)[C@@H]5CC[C@]43C)[C@@H]12` [Compound 2b], the IC50 was 0.0433 ± 0.00019 mM in experiment [3] (setting [6]); more than 3 mM in experiment [1]; more than 3 mM in experiment [4]; more than 10 mM in experiment [2] (compounds, Table 2).
For `C=C(C)[C@@H]1CC[C@]2(C(=O)O)CC[C@]3(C)[C@H](CC[C@@H]4[C@@]5(C)CC[C@H](OC(=O)CCC)C(C)(C)[C@@H]5CC[C@]43C)[C@@H]12` [Compound 2c], the IC50 was 0.158 ± 0.00122 mM in experiment [3] (setting [6]); more than 3 mM in experiment [1]; more than 3 mM in experiment [4]; more than 10 mM in experiment [2] (compounds, Table 2).
As to `C=C(C)[C@@H]1CC[C@]2(C(=O)O)CC[C@]3(C)[C@H](CC[C@@H]4[C@@]5(C)CC[C@H](OC(=O)CCCC)C(C)(C)[C@@H]5CC[C@]43C)[C@@H]12` [Compound 2d], the half-maximal inhibitory concentration (IC50) was 0.269 ± 0.00322 mM in experiment [3] (setting [6]); more than 3 mM in experiment [1]; more than 3 mM in experiment [4]; more than 10 mM in experiment [2] (compounds, Table 2).
As for `C=C(C)[C@@H]1CC[C@]2(C(=O)O)CC[C@]3(C)[C@H](CC[C@@H]4[C@@]5(C)CC[C@H](OC(=O)CCCCC)C(C)(C)[C@@H]5CC[C@]43C)[C@@H]12` [Compound 2e], the IC50 in experiment [3] (setting [6]) was 0.0721 ± 0.00154 mM; in experiment [1], more than 3 mM; in experiment [4] it was more than 3 mM; in experiment [2] (compounds, Table 2), more than 10 mM.
For the compound `C=C(C)[C@@H]1CC[C@]2(C(=O)O)CC[C@]3(C)[C@H](CC[C@@H]4[C@@]5(C)CC[C@H](OC(=O)c6ccccc6)C(C)(C)[C@@H]5CC[C@]43C)[C@@H]12` [Compound 2f], the IC50 was 0.0731 ± 0.00096 mM in experiment [3] (setting [6]); more than 3 mM in experiment [1]; more than 3 mM in experiment [4]; more than 10 mM in experiment [2] (compounds, Table 2).
As to `C=C(C)[C@@H]1CC[C@]2(C(=O)N(C(=O)NC3CCCCC3)C3CCCCC3)CC[C@]3(C)[C@H](CC[C@@H]4[C@@]5(C)CC[C@H](OC(C)=O)C(C)(C)[C@@H]5CC[C@]43C)[C@@H]12` [Compound 2h], the half-inhibitory concentration (IC50) in experiment [3] (setting [6]) is 0.281 ± 0.00089 mM; in experiment [1], more than 3 mM; in experiment [4] it was more than 3 mM; in experiment [2] (compounds, Table 2) it was more than 10 mM.
For `C=C(C)[C@@H]1CC[C@]2(C(=O)N(C(=O)NC3CCCCC3)C3CCCCC3)CC[C@]3(C)[C@H](CC[C@@H]4[C@@]5(C)CC[C@H](OC(=O)CC)C(C)(C)[C@@H]5CC[C@]43C)[C@@H]12` [Compound 2i], the half-maximal inhibitory concentration (IC50) in experiment [3] (setting [6]) is 0.368 ± 0.00164 mM; in experiment [1] it was more than 3 mM; in experiment [4], more than 3 mM; in experiment [2] (compounds, Table 2), more than 10 mM.
`C=C(C)[C@@H]1CC[C@]2(C(=O)N(C(=O)NC3CCCCC3)C3CCCCC3)CC[C@]3(C)[C@H](CC[C@@H]4[C@@]5(C)CC[C@H](OC(=O)CCC)C(C)(C)[C@@H]5CC[C@]43C)[C@@H]12` [Compound 2j]: the IC50 in experiment [3] (setting [6]) is more than 0.6 mM; in experiment [1] it was more than 3 mM; in experiment [4] it was more than 3 mM; in experiment [2] (compounds, Table 2), more than 10 mM.
Turning to `C=C(C)[C@@H]1CC[C@]2(C(=O)N(C(=O)NC3CCCCC3)C3CCCCC3)CC[C@]3(C)[C@H](CC[C@@H]4[C@@]5(C)CC[C@H](OC(=O)CCCC)C(C)(C)[C@@H]5CC[C@]43C)[C@@H]12` [Compound 2k], the IC50 in experiment [3] (setting [6]) is more than 0.6 mM; in experiment [1] it was more than 3 mM; in experiment [4] it was more than 3 mM; in experiment [2] (compounds, Table 2), more than 10 mM.
Take `C=C(C)[C@@H]1CC[C@]2(C(=O)N(C(=O)NC3CCCCC3)C3CCCCC3)CC[C@]3(C)[C@H](CC[C@@H]4[C@@]5(C)CC[C@H](OC(=O)CCCCC)C(C)(C)[C@@H]5CC[C@]43C)[C@@H]12` [Compound 2l]: the IC50 is more than 0.6 mM in experiment [3] (setting [6]); more than 3 mM in experiment [1]; more than 3 mM in experiment [4]; more than 10 mM in experiment [2] (compounds, Table 2).
Take `COc1cc([C@H]2c3c(cc(OC)c(O)c3OC)C[C@@H](CO)[C@@H]2CO[C@@H]2O[C@H](CO)[C@@H](O)[C@H](O)[C@H]2O)cc(OC)c1O` [Compound 4, (+)-lyoniresinol-3α-O-β-D-glucopyranoside]: the IC50 in experiment [3] (setting [6]) is more than 0.6 mM; in experiment [1] it was 0.373 ± 0.00105 mM; in experiment [4], 1.214 ± 0.00201 mM; in experiment [2] (compounds, Table 2), 3.795 ± 0.00042 mM.
Turning to `C[C@@H]1O[C@@H](O[C@H]2[C@H](Oc3c(-c4ccc(O)cc4)oc4cc(O)cc(O)c4c3=O)O[C@@H](C)[C@H](O)[C@H]2O)[C@H](O)[C@H](O)[C@H]1O` [Compound 5, kaempferol-3-O-α-L-rhamnopyranosyl-(1→2)-α-L-rhamnopyrano side], the IC50 in experiment [3] (setting [5]) was more than 0.6 mM; in experiment [1], more than 3 mM; in experiment [4], more than 3 mM; in experiment [2] (compounds, Table 2), 6.019 ± 0.00136 mM.
`C[C@@H]1O[C@@H](O[C@H]2[C@H](Oc3c(-c4ccc(O)c(O)c4)oc4cc(O)cc(O)c4c3=O)O[C@@H](C)[C@H](O)[C@H]2O)[C@H](O)[C@H](O)[C@H]1O` [Compound 6, horridin]: the half-inhibitory concentration (IC50) in experiment [3] (setting [5]) was more than 0.6 mM; in experiment [1], more than 3 mM; in experiment [4], more than 3 mM; in experiment [2] (compounds, Table 2), 0.0428 ± 0.00083 mM.
`O=C1O[C@H]([C@@H](O)CO)C(O)=C1O` [Vitamin C, reference compound] had an IC50 in experiment [2] (compounds, Table 2) of 0.158 ± 0.0019 mM. For the same compound, the “IC50 DPPH” value in experiment [2] (fractions A-G, Table 1) came out at 28 ± 1560 µg/mL (≈ 159 µM).

In general, IC50 refers to the concentration that inhibits the measured activity by half.
